Measurements from patent US10287295B2, “TGF-β inhibitors” (Rigel Pharmaceuticals, Inc., priority 2015, dated 2019).
pIC50: −log10 of the molar value.

What was measured:
[1] = tested on: GDF8 signaling (GDF pSMAD, MPC11); experiment: AlphaScreen SureFire SMAD3 (p-Ser423/425) assay, inhibition of GDF8 signaling; type: cell-based; conditions: Mus musculus, MPC-11, inhibition of GDF8 signaling, p-SMAD3 readout
[2] = tested on: TGF-β signaling (TGF-β pSMAD, MPC-11); experiment: AlphaScreen SureFire SMAD3 (p-Ser423/425) assay, inhibition of TGF-β signaling; type: cell-based; conditions: Mus musculus, MPC-11, inhibition of TGF-β signaling, p-SMAD3 readout

| SMILES | pIC50 [1] | pIC50 [2] |
| --- | --- | --- |
| CCc1nc(-c2cccc(C)c2)c(-c2ccc3ncsc3c2)[nH]1 [Compound 116, 6-(2-Ethyl-4-(m-tolyl)-1H-imidazol-5-yl)benzo[d]thiazole] | 6.55 | 5.82 |
| Cc1nc(-c2cc(F)c(F)c(F)c2)c(-c2ccc3ncnn3c2)[nH]1 [Compound 92, 6-(2-Methyl-4-(3,4,5-trifluorophenyl)-1H-imidazol-5-yl)-[1,2,4]triazolo[1,5-a]pyridine] | 6.33 | 5.64 |
| Cc1cc(-c2nc(N)sc2-c2ccc3cn[nH]c3c2)ccc1F [Compound 174, 4-(4-fluoro-3-methylphenyl)-5-(1H-indazol-6-yl)thiazol-2-amine] | 6.84 | 6.37 |
| COc1ccc(-c2nc(N)sc2-c2ccc3nccn3c2)cc1 [Compound 163, 5-(imidazo[1,2-a]pyridin-6-yl)-4-(4-methoxyphenyl)thiazol-2-amine] | 7.27 | 6.77 |
| Cc1cccc(-c2nc(C)n(C)c2-c2ccc3[nH]ncc3c2)c1 [Compound 56, 5-(1,2-Dimethyl-4-(m-tolyl)-1H-imidazol-5-yl)-1H-indazole] | 6.14 | 5.28 |
| CCc1nc(-c2ccc(F)c(C)c2)c(-c2ccc3ncnn3c2)[nH]1 [Compound 108, 6-(2-Ethyl-4-(4-fluoro-3-methylphenyl)-1H-imidazol-5-yl)-[1,2,4]triazolo[1,5-a]pyridine] | 7.10 | 6.40 |
| Cc1cc(-c2ncsc2-c2ccc3nccn3c2)ccc1F [Compound 167, 4-(4-fluoro-3-methylphenyl)-5-(imidazo[1,2-a]pyridin-6-yl)thiazole] | 7.11 | 6.67 |
| CCc1nc(-c2ccc(F)cc2)c(-c2ccc3ncnn3c2)[nH]1 [Compound 121, 6-(2-Ethyl-4-(4-fluorophenyl)-1H-imidazol-5-yl)-[1,2,4]triazolo[1,5-a]pyridine] | 6.34 | 5.68 |
| CCc1nc(-c2cc(F)cc(Cl)c2)c(-c2ccc3ncsc3c2)[nH]1 [Compound 140, 6-(4-(3-Chloro-5-fluorophenyl)-2-ethyl-1H-imidazol-5-yl)benzo[d]thiazole] | 6.21 | 5.65 |
| c1ccc(-c2nc[nH]c2-c2ccc3cn[nH]c3c2)cc1 [Compound 2, 6-(4-Phenyl-1H-imidazol-5-yl)-1H-indazole] | 7.22 | 6.70 |
| Cc1cc(-c2nc(N)sc2-c2ccc3[nH]ncc3c2)ccc1F [Compound 160, 4-(4-fluoro-3-methylphenyl)-5-(1H-indazol-5-yl)thiazol-2-amine] | 7.41 | 7.00 |
| CCc1nc(-c2cc(C)cc(F)c2)c(-c2ccc3ncnn3c2)[nH]1 [Compound 144, 6-(2-Ethyl-4-(3-fluoro-5-methylphenyl)-1H-imidazol-5-yl)-[1,2,4]triazolo[1,5-a]pyridine] | 6.51 | 5.82 |
| Cc1nc(-c2ccc(F)c(C)c2)c(-c2ccc3cn[nH]c3c2)[nH]1 [Compound 72, 6-(4-(4-Fluoro-3-methylphenyl)-2-methyl-1H-imidazol-5-yl)-1H-indazole] | 7.00 | 6.01 |
| Cc1nc(-c2cc(F)cc(F)c2)c(-c2ccc3[nH]ncc3c2)[nH]1 [Compound 148, 5-(4-(3,5-Difluorophenyl)-2-methyl-1H-imidazol-5-yl)-1H-indazole] | 6.14 | 5.55 |
| CCc1nc(-c2cc(C)cc(F)c2)c(-c2ccc3ncsc3c2)[nH]1 [Compound 145, 6-(2-Ethyl-4-(3-fluoro-5-methylphenyl)-1H-imidazol-5-yl)benzo[d]thiazole] | 6.28 | 5.53 |
| Cn1cnc(-c2cccc(Cl)c2)c1-c1ccc2[nH]ncc2c1 [Compound 60, 5-(4-(3-Chlorophenyl)-1-methyl-1H-imidazol-5-yl)-1H-indazole] | 7.70 | 7.22 |
| CCc1nc(-c2ccc(F)cc2)c(-c2ccc3ncsc3c2)[nH]1 [Compound 122, 6-(2-Ethyl-4-(4-fluorophenyl)-1H-imidazol-5-yl)benzo[d]thiazole] | 6.24 | 5.34 |
| Cc1cc(-c2nc(C)n(C)c2-c2ccc3cn[nH]c3c2)ccc1F [Compound 53, 6-(4-(4-Fluoro-3-methylphenyl)-1,2-dimethyl-1H-imidazol-5-yl)-1H-indazole] | 6.11 | 5.48 |
| Nc1nc(-c2cccc(C(F)(F)F)c2)c(-c2ccc3cn[nH]c3c2)s1 [Compound 185, 5-(1H-indazol-6-yl)-4-(3-(trifluoromethyl)phenyl)thiazol-2-amine] | 6.37 | 5.63 |
| COc1ccc(-c2ncn(C)c2-c2ccc3cn[nH]c3c2)cc1 [Compound 70, 6-(4-(4-Methoxyphenyl)-1-methyl-1H-imidazol-5-yl)-1H-indazole] | 6.15 | 5.28 |
| Cn1cnc(-c2cccc(Cl)c2)c1-c1ccc2cn[nH]c2c1 [Compound 61, 6-(4-(3-Chlorophenyl)-1-methyl-1H-imidazol-5-yl)-1H-indazole] | 7.52 | 6.82 |
| CCc1nc(-c2cccc(C)c2)c(-c2ccc3[nH]ncc3c2)[nH]1 [Compound 113, 5-(2-Ethyl-4-(m-tolyl)-1H-imidazol-5-yl)-1H-indazole] | 6.34 | 5.51 |
| Cc1cc(-c2nc(C)n(C)c2-c2ccc3[nH]ncc3c2)ccc1F [Compound 52, 5-(4-(4-Fluoro-3-methylphenyl)-1,2-dimethyl-1H-imidazol-5-yl)-1H-indazole] | 6.68 | 6.04 |
| Cn1cnc(-c2ccc(F)cc2)c1-c1ccc2[nH]ncc2c1 [Compound 48, −(4-(4-Fluorophenyl)-1-methyl-1H-imidazol-5-yl)-1H-indazole] | 7.22 | 6.60 |
| Cc1cccc(-c2ncsc2-c2ccc3cn[nH]c3c2)c1 [Compound 153, 5-(1H-indazol-6-yl)-4-(m-tolyl)thiazole] | 7.95 | 6.68 |

Results, then the molecule that gave them:

| pIC50 [1] | pIC50 [2] | SMILES |
| --- | --- | --- |
| 6.06 | 5.60 | CCc1nc(-c2ccc(F)c(F)c2)c(-c2ccc3nccn3c2)[nH]1 [Compound 134, 6-(4-(3,4-Difluorophenyl)-2-ethyl-1H-imidazol-5-yl)imidazo[1,2-a]pyridine] |
| 6.74 | 6.18 | Cc1cccc(-c2ncn(C)c2-c2ccc3nccnc3c2)c1 [Compound 47, 6-(1-Methyl-4-(m-tolyl)-1H-imidazol-5-yl)quinoxaline] |
| 7.22 | 7.15 | Cn1cnc2ccc(-c3[nH]cnc3-c3ccc(F)c(F)c3)cc21 [Compound 33, 6-(4-(3,4-Difluorophenyl)-1H-imidazol-5-yl)-1-methyl-1H-benzo[d]imidazole] |
| 7.16 | 6.58 | Cc1cc(-c2ncsc2-c2ccc3ncsc3c2)ccc1F [Compound 165, 6-(4-(4-fluoro-3-methylphenyl)thiazol-5-yl)benzo[d]thiazole] |
| 6.24 | 5.54 | Cc1nc(-c2cc(F)c(F)c(F)c2)c(-c2ccc3nccn3c2)[nH]1 [Compound 94, 6-(2-Methyl-4-(3,4,5-trifluorophenyl)-1H-imidazol-5-yl)imidazo[1,2-a]pyridine] |
| 6.29 | 5.36 | Cc1nc(-c2ccc(F)c(C)c2)c(-c2ccc3ncccc3c2)[nH]1 [Compound 75, 6-(4-(4-Fluoro-3-methylphenyl)-2-methyl-1H-imidazol-5-yl)quinoline] |
| 5.98 | 5.54 | Cn1cnc(-c2ccc(F)c(F)c2)c1-c1ccc2nccnc2c1 [Compound 68, 6-(4-(3,4-Difluorophenyl)-1-methyl-1H-imidazol-5-yl)quinoxaline] |
| 7.15 | 6.64 | c1ccc(-c2nc[nH]c2-c2ccc3[nH]ncc3c2)cc1 [Compound 1, 5-(4-Phenyl-1H-imidazol-5-yl)-1H-indazole] |
| 7.30 | 6.66 | Cn1cnc(-c2cccc(Cl)c2)c1-c1ccc2ncn(C)c2c1 [Compound 62, 6-(4-(3-Chlorophenyl)-1-methyl-1H-imidazol-5-yl)-1-methyl-1H-benzo[d]imidazole] |
| 8.00 | 8.00 | Cc1cc(-c2nc[nH]c2-c2ccc3[nH]ncc3c2)ccc1F [Compound 3, 5-(4-(4-Fluoro-3-methylphenyl)-1H-imidazol-5-yl)-1H-indazole] |
| 6.34 | 5.91 | Fc1cccc(-c2nc[nH]c2-c2ccc3ncccc3c2)c1 [Compound 40, 6-(4-(3-Fluorophenyl)-1H-imidazol-5-yl)quinoline] |
| 6.49 | 5.54 | Cc1nc(-c2ccc(F)c(F)c2)c(-c2ccc3cn[nH]c3c2)[nH]1 [Compound 84, 6-(4-(3,4-Difluorophenyl)-2-methyl-1H-imidazol-5-yl)-1H-indazole] |
| 6.59 | 6.04 | Cc1cc(-c2ncn(C)c2-c2ccc3ncccc3c2)ccc1F [Compound 37, 6-(4-(4-Fluoro-3-methylphenyl)-1-methyl-1H-imidazol-5-yl)quinoline] |
| 7.70 | 7.00 | Cc1cccc(-c2nc[nH]c2-c2ccc3cn[nH]c3c2)c1 [Compound 16, 6-(4-(m-Tolyl)-1H-imidazol-5-yl)-1H-indazole] |
| 6.11 | 5.47 | CCc1nc(-c2ccc(F)c(F)c2)c(-c2ccc3nccnc3c2)[nH]1 [Compound 135, 6-(4-(3,4-Difluorophenyl)-2-ethyl-1H-imidazol-5-yl)quinoxaline] |
| 6.89 | 6.57 | Cn1cnc2ccc(-c3[nH]cnc3-c3ccc(F)cc3)cc21 [Compound 12, 6-(4-(4-Fluorophenyl)-1H-imidazol-5-yl)-1-methyl-1H-benzo[d]imidazole] |
| 7.15 | 6.85 | Fc1ccc(-c2nc[nH]c2-c2ccc3ncsc3c2)cc1F [Compound 34, 6-(4-(3,4-Difluorophenyl)-1H-imidazol-5-yl)benzo[d]thiazole] |
| 6.54 |  | Cn1cnc2ccc(-c3[nH]cnc3-c3cccc(F)c3)cc21 [Compound 29, 6-(4-(3-Fluorophenyl)-1H-imidazol-5-yl)-1-methyl-1H-benzo[d]imidazole] |
